Measured values published in the Biogen ADME set (Fang et al. 2023).
Converted amounts (≈) assume the structure as drawn.

Details: for aqueous solubility: pH 6.8

Compound	MDR1-MDCK efflux ratio	fraction unbound, human plasma	fraction unbound, rat plasma	intrinsic clearance, human liver microsomes	intrinsic clearance, rat liver microsomes	aqueous solubility
Cc1ccc(C(=O)N2CCC(Cc3ccccc3-c3ccccc3)(C(=O)N(C)C)CC2)s1	1.12	0.00509	0.00257	768 mL/min/kg	1520 mL/min/kg	23.8 µg/mL (≈ 53.3 µM)
Nc1c(F)ccc2cnc(-n3ccc4ccncc43)cc12	–	0.0517	0.0428	368 mL/min/kg	2360 mL/min/kg	–
CCc1cc(-c2ccc(OC)c3ncccc23)nc(N2CCOCC2)n1	0.848	–	–	28.6 mL/min/kg	95.3 mL/min/kg	–
CCCc1n[nH]c2c1C(C1CC=CCC1)C(C#N)=C(N)O2 (stereo unspecified)	–	–	–	–	–	3.07 µg/mL (≈ 10.8 µM)
CCN(C(C)=O)c1ccc(C)cc1C(=O)O	0.864	–	–	≤ 4.74 mL/min/kg	≤ 10.7 mL/min/kg	34.9 µg/mL (≈ 158 µM)
CNCC(=O)Nc1cc(Cl)c(OCCOC)c(Cl)c1	–	–	–	–	–	87.3 µg/mL (≈ 284 µM)
Cc1nc(O)cc(C2CN(C3CCCCC3)C2)n1	16.5	–	–	≤ 4.74 mL/min/kg	≤ 10.7 mL/min/kg	41.4 µg/mL (≈ 167 µM)
CCOc1ccc(CC(=O)N2CCC3(CC2)Nc2cc(C)ccc2-n2cccc23)cc1OCC	–	–	–	187 mL/min/kg	956 mL/min/kg	–
Cc1cc(C(=O)N(C)C2CCC2)n2nccc2n1	0.719	–	–	≤ 4.74 mL/min/kg	≤ 10.7 mL/min/kg	90.9 µg/mL (≈ 372 µM)
COc1cc(OCc2ccccn2)ccc1/C=C/c1cc(/C=C/c2ccc3cc[nH]c3c2)[nH]n1	–	–	–	–	–	0.61 µg/mL (≈ 1.36 µM)
CCc1cc(=O)[nH]c(SCCCCC2CCOCC2)n1	1.12	–	–	34.2 mL/min/kg	287 mL/min/kg	–
O=C(CN1CCCC(c2nc3ccccc3o2)C1)Nc1ccc(OC(F)(F)F)cc1 (stereo unspecified)	0.983	–	–	134 mL/min/kg	496 mL/min/kg	6.85 µg/mL (≈ 16.3 µM)
CCC(Nc1cnn(C)c1)c1ccc2c(c1)OCCO2 (stereo unspecified)	0.835	–	–	11.4 mL/min/kg	332 mL/min/kg	37.7 µg/mL (≈ 138 µM)
N#Cc1cccc(CN2CCOC[C@H](Oc3ccccc3)C2)c1	0.507	–	–	128 mL/min/kg	2020 mL/min/kg	52.9 µg/mL (≈ 171 µM)
CC1(C)CCCN1C(=O)c1c(F)cc(C#N)cc1F	0.663	–	–	≤ 4.74 mL/min/kg	69.7 mL/min/kg	–
C[C@@H](c1ccccc1)N(C)C(=O)NCCN(C)CCO	18.4	–	–	≤ 4.74 mL/min/kg	1140 mL/min/kg	–
CN(c1ncc(Br)cn1)C1CCS(=O)CC1 (stereo unspecified)	0.943	–	–	≤ 4.74 mL/min/kg	25.7 mL/min/kg	76.3 µg/mL (≈ 251 µM)
CCOC(=O)c1ccc(S(=O)(=O)N2CCc3cc(C(=O)OC)ccc32)cc1	–	–	–	–	–	0.83 µg/mL (≈ 2.13 µM)
Clc1ccccc1CNCc1ccc2c(c1)OCCO2	0.443	–	–	479 mL/min/kg	2170 mL/min/kg	24.5 µg/mL (≈ 84.6 µM)
O=c1n(CCc2ccncc2)nnn1-c1ccccc1	0.571	–	–	5.8 mL/min/kg	65.2 mL/min/kg	23.1 µg/mL (≈ 86.3 µM)

Compound	MDR1-MDCK efflux ratio	fraction unbound, human plasma	fraction unbound, rat plasma	intrinsic clearance, human liver microsomes	intrinsic clearance, rat liver microsomes	aqueous solubility
Cn1cnnc1NC(=O)c1cnn2c1CCCC2	3.95	–	–	≤ 4.74 mL/min/kg	≤ 10.7 mL/min/kg	–
Cc1nc(Cl)cc(Nc2cnn(C(C)(C)C)c2)n1	0.684	–	–	≤ 4.74 mL/min/kg	21.4 mL/min/kg	22.6 µg/mL (≈ 85 µM)
O=C(Cc1cccc2ccccc12)NCc1ccc(N2CCCC2=O)cc1	–	–	–	–	–	14.1 µg/mL (≈ 39.4 µM)
CC(C)c1cc(C(=O)Nc2ncccc2Cl)no1	–	–	–	88.3 mL/min/kg	65.1 mL/min/kg	–
O=C(c1ccc(-n2cccn2)nc1)N1CCN(c2ccccc2O)CC1	0.747	–	–	5.81 mL/min/kg	127 mL/min/kg	42.5 µg/mL (≈ 122 µM)
Cc1nc(C)n(-c2ccccc2NC(=O)c2cc(C#N)cn2C)n1	–	–	–	11.6 mL/min/kg	163 mL/min/kg	–
Cc1nn(C)c(C)c1-c1cc(C(C)(C)C)nc(N2CCN(C)CC2)n1	1.81	–	–	17.5 mL/min/kg	4620 mL/min/kg	–
CC(C)C[C@@H](CO)n1cc(-c2ccccc2Cn2cccn2)nn1	6.29	–	–	101 mL/min/kg	513 mL/min/kg	17 µg/mL (≈ 52.3 µM)
CC(=O)N1CCN(C(=O)[C@H]2CCCCN2C(=O)OC(C)(C)C)CC1	9.44	–	–	≤ 4.74 mL/min/kg	≤ 10.7 mL/min/kg	113 µg/mL (≈ 333 µM)
O=C(Nc1nccs1)C1CCN(C(=O)CN2CCc3ccccc32)CC1	24.4	–	–	33.2 mL/min/kg	394 mL/min/kg	51.4 µg/mL (≈ 139 µM)
COc1cc(Nc2c(C#N)cnc3cc(OC)c(OC)cc23)c(Cl)cc1Cl	–	–	–	161 mL/min/kg	443 mL/min/kg	–
COC(=O)[C@@H]1C[C@H](O)CN1CC#Cc1ccc(Cl)cc1	0.681	–	–	–	–	31.8 µg/mL (≈ 108 µM)
CCc1ccccc1-c1cn(CCc2cnccn2)nn1	0.783	–	–	24.7 mL/min/kg	290 mL/min/kg	27.6 µg/mL (≈ 99 µM)
O=C(Nc1cncc(Cl)c1Cl)c1cccc(-n2cccn2)n1	0.09	–	–	99 mL/min/kg	149 mL/min/kg	–
CC(C)(C)OC(=O)N1CCCC1C(=O)N1CCC(C(=O)N[C@@H](Cc2c[nH]c3ccccc23)C(=O)O)CC1 (stereo partly specified)	–	0.492	0.696	≤ 4.74 mL/min/kg	–	–
CC#CCCNC(=O)c1cccnc1C	0.755	–	–	≤ 4.74 mL/min/kg	21.5 mL/min/kg	–
N#Cc1ccc2nc(NCCn3ccnc3)ccc2c1	4.78	–	–	6.36 mL/min/kg	54.5 mL/min/kg	–
COc1ccc(S(=O)(=O)CCC(=O)Nc2ccc3c(c2)N(C)C(=O)CO3)cc1	27.6	–	–	≤ 4.74 mL/min/kg	109 mL/min/kg	62.2 µg/mL (≈ 154 µM)
Cc1cn2c3c(=O)n(Cc4ccccc4Cl)c(=O)n(C)c3nc2n1-c1ccccc1O	12.8	–	–	–	–	0.19 µg/mL (≈ 0.436 µM)
O=C(NC12CCCC1NCC2)c1ccc(-c2cn[nH]c2)cc1 (stereo unspecified)	2.29	1	–	≤ 4.74 mL/min/kg	–	–

Compound	MDR1-MDCK efflux ratio	fraction unbound, human plasma	fraction unbound, rat plasma	intrinsic clearance, human liver microsomes	intrinsic clearance, rat liver microsomes	aqueous solubility
O=C(Nc1cccc2c(=O)cc(-c3nnn[nH]3)oc12)c1ccc(OCCCCc2ccccc2)cc1	–	0.0383	0.0592	21.1 mL/min/kg	–	–
CC(C)CCN1CCC(CNC(=O)C2CC=CC2)CC1	3.77	–	–	12.5 mL/min/kg	141 mL/min/kg	–
N#Cc1cnn(-c2ccc(F)cc2)c1N	–	–	–	–	–	29.2 µg/mL (≈ 144 µM)
COc1ccc(CNC(=O)c2cc(-c3cncc(C)c3)ncc2-c2nccs2)nc1OC	9.82	–	–	17.7 mL/min/kg	125 mL/min/kg	9.86 µg/mL (≈ 22 µM)
CCC(=O)Nc1sc2c(c1C#N)CCC2	–	–	–	156 mL/min/kg	381 mL/min/kg	–
Fc1cccc(CCNCc2cc(-c3ccccc3)cn3nnnc23)c1	0.71	–	–	190 mL/min/kg	1720 mL/min/kg	13.7 µg/mL (≈ 39.5 µM)
C=CC(=O)N1CCC[C@H](n2c(=O)n(-c3ccc(Oc4ccccc4)cc3)c3c(N)ncnc32)C1	5.79	0.0963	0.0189	166 mL/min/kg	516 mL/min/kg	56.4 µg/mL (≈ 123 µM)
O=C(Cc1cccnc1)Nc1ncccc1Cl	0.704	–	–	≤ 4.74 mL/min/kg	31.1 mL/min/kg	–
Cc1ccc(=O)n(CCOc2ccc(Cl)c(F)c2)n1	0.684	–	–	71.2 mL/min/kg	631 mL/min/kg	–
COc1ccccc1Oc1c(NS(=O)(=O)c2ccc(C(C)(C)C)cc2)nc(-c2ncccn2)nc1OCCO	88.2	–	–	16 mL/min/kg	71.8 mL/min/kg	–
O=C(c1ccco1)N1CCCC(C(=O)N2CCc3ccccc3C2)C1 (stereo unspecified)	–	–	–	–	–	69.8 µg/mL (≈ 206 µM)
COc1cc(/C=C2\CCCN([C@@H](C)c3ccc(F)cc3)C2=O)ccc1-n1cnc(C)c1	1.48	–	–	44.4 mL/min/kg	83.1 mL/min/kg	12.9 µg/mL (≈ 30.8 µM)
CCc1nc(CN2CCC(=O)Nc3cc(F)ccc32)n[nH]1	14.7	–	–	≤ 4.74 mL/min/kg	16.1 mL/min/kg	–
COC(=O)N[C@H](C)CNc1nccc(-c2cn(C(C)C)nc2-c2cc(Cl)cc(NS(C)(=O)=O)c2F)n1	129	–	–	14.7 mL/min/kg	66.5 mL/min/kg	–
CC(C)(C)c1ccc(CN2CCC(C(N)=O)CC2)cc1	0.975	–	–	≤ 4.74 mL/min/kg	144 mL/min/kg	47.8 µg/mL (≈ 174 µM)
NCCOc1cccc(CC(=O)N2CCCN(C(=O)C3CCC3)CC2)c1	5.51	–	–	≤ 4.74 mL/min/kg	≤ 10.7 mL/min/kg	–
CCCn1cnnc1CN(C)Cc1ccc(C(F)(F)F)nc1	23.6	–	–	≤ 4.74 mL/min/kg	29.5 mL/min/kg	–
CN1CCC(NS(=O)(=O)C2CN(C(=O)c3cccc(Cl)c3)C2)CC1	28.4	–	–	4.94 mL/min/kg	≤ 10.7 mL/min/kg	56.8 µg/mL (≈ 153 µM)
O=C(Nc1cccnc1)c1ccnc(NC(=O)C2CC2)c1	2.81	–	0.412	≤ 4.74 mL/min/kg	27.3 mL/min/kg	40.8 µg/mL (≈ 144 µM)
